# Data taken from US20220401514A1, “ANTIMICROBIAL, BACTERIOPHAGE-DERIVED POLYPEPTIDES AND THEIR USE AGAINST GRAM-NEGATIVE AND ACID-FAST BACTERIA” (CONTRAFECT CORPORATION, priority 2019, published 2022).
# Read-outs that look alike come from different tables or passages of the source. Ends that are not written are not given here.
# How the values were obtained:
# [1] = system: carbapenem-resistant P. aeruginosa clinical isolate CFS-1292; assay: MIC by modified CLSI broth microdilution against P. aeruginosa CFS-1292 (CAA, CAA + human serum); format: cell-based, Pseudomonas aeruginosa; conditions: for MIC (μg/mL) against CFS-1292 in 100% CAA (1st run/2nd run): 1st run or single value
# [2] = Stability assessment in 100% CAA; format: in vitro ADME; set-up: unit not given beside the values
# Description: Stability was assessed after incubation in 100% human serum at 37° C. after 10 minutes, 1 hour, and 2 hours.
# Stability assessment was further conducted in 100% CAA and rabbit serum using the same methodology discussed above.
# M. smegmatis = assay: 45 hr MIC against M. smegmatis (NTM), Mueller Hinton broth; format: cell-based, Mycobacterium smegmatis
# M. fortuitum = assay: 45 hr MIC against M. fortuitum (NTM); format: cell-based, Mycobacterium fortuitum; conditions: M. fortuitum subsp. Fortuitum da Costa Cruz. ATCC 6841
# M. avium = assay: 45 hr MIC against M. avium (NTM); format: cell-based, Mycobacterium avium; conditions: M. avium Chester ATCC 700898
# M. scrofulaceum = assay: 45 hr MIC against M. scrofulaceum (NTM); format: cell-based, Mycobacterium scrofulaceum; conditions: M. scrofulaceum Prissick and Masson ATCC 19981
# M. intracellulare = assay: 45 hr MIC against M. intracellulare (NTM); format: cell-based, Mycobacterium intracellulare; conditions: M. intracellulare (Cuttino and McCabe) Runyon ATCC 13950
# [3] = system: M. kansasii Hauduroy ATCC 12478; assay: 45 hr MIC against M. kansasii (NTM), Mueller Hinton broth; format: cell-based, Mycobacterium kansasii
# Pseudomonas aeruginosa = assay: microbe, parasite or virus in culture; format: cell-based; conditions: P. aeruginosa isolates (n per peptide in table)
# Enterobacter cloacae = assay: microbe, parasite or virus in culture; format: cell-based; conditions: for MIC: Enterobacter cloacae ATCC 13047, CAA supplemented with human serum
# Description: (§1) Determination of Minimal Inhibitory Concentrations (MIC).
# (§2) Additional MIC testing was performed for several peptides against the ESKAPE pathogens Escherichia coli, Enterobacter cloacae, Klebsiella pneumoniae, and Acinetobacter baumannii, in CAA supplemented with human serum (Table D).
# Escherichia coli = assay: microbe, parasite or virus in culture; format: cell-based; conditions: for MIC50 / MIC100 / MIC Range: E. coli isolates (n per peptide in table); for MIC: Escherichia coli ATCC 25922, CAA supplemented with human serum
# Description: as §1, §2
# Klebsiella pneumoniae = format: cell-based; conditions: for MIC50 / MIC100 / MIC Range: K. pneumoniae isolates (n per peptide in table); for MIC: Klebsiella pneumoniae HM-44, CAA supplemented with human serum
# Description: as §1, §2
# Acinetobacter baumannii = assay: microbe, parasite or virus in culture; format: cell-based; conditions: for MIC50 / MIC100 / MIC Range: A. baumannii isolates (n per peptide in table); for MIC: Acinetobacter baumannii ATCC BAA 747, CAA supplemented with human serum
# S. maltophilia = assay: MIC against S. maltophilia isolates; format: cell-based, Stenotrophomonas maltophilia; conditions: S. maltophilia isolates (n per peptide in table)
# Description: as §1
# In addition to the results discussed above in Example 3, further testing was conducted on several Chp peptides. MIC values were determined against different species, including P. aeruginosa, K. pneumoniae, A. baumannii, E. cloacae, E. coli, and S. maltophilia, and the results are presented below in Tables 40-45, wherein n=number of isolates tested for each species and MIC is measured as μg/mL.
# [4] = system: carbapenem-resistant bacterial strains; assay: organism not typed; format: cell-based
# Excerpt: as §1
# [5] = system: Mycobacterium tuberculosis strains
# Description: MIC values for various Chp peptides were determined using the CLSI method for broth microdilution in 96-well microtiter format.
# Next, MIC values for various Chp peptides were determined using the CLSI method above for broth microdilution in 96-well microtiter format for two different Mycobacterium tuberculosis strains. The MIC was determined as explained above for the NTM strains.
# [6] = E. cloacae isolates (n per peptide in table)
# [7] = carbapenem-resistant isolate PA19
# [8] = carbapenem-resistant isolate PA20
# [9] = carbapenem-resistant isolate PA21
# [10] = carbapenem-resistant isolate PA22
# [11] = carbapenem-resistant isolate PA23
# [12] = carbapenem-resistant isolate PA24
# [13] = carbapenem-resistant isolate WLC-452
# [14] = Mycobacterium tuberculosis (Zopf) Lehmann and Neumann ATCC 25177
# [15] = Mycobacterium tuberculosis (Zopf) Lehmann and Neumann ATCC 35817
Sequence,MIC (μg/mL) against CFS-1292 in 100% CAA (1st run/2nd run) [1],MIC (μg/mL) against CFS-1292 in CAA + […] human serum [1],MIC (100% CAA) [2],"45 hr MIC (M. smegmatis; M. smegmatis MC^2 155, Run #1)","45 hr MIC (M. smegmatis; M. smegmatis MC^2 155, Run #2)",45 hr MIC (M. fortuitum),45 hr MIC (M. avium),45 hr MIC (M. scrofulaceum),45 hr MIC (M. intracellulare),45 hr MIC [3],MIC50 (Pseudomonas aeruginosa),MIC100 (Pseudomonas aeruginosa),MIC50 (Klebsiella pneumoniae),MIC100 (Klebsiella pneumoniae),MIC50 (Acinetobacter baumannii),MIC100 (Acinetobacter baumannii),MIC Range (Acinetobacter baumannii),MIC50 (S. maltophilia),"MIC [5, 14]","MIC [5, 15]",further results
MRPVKRSRVNKARSAGKFRKQVGKTKMANLRSNPMRGGWRL [HH3930],2 µg/mL,4 µg/mL,2,4 µg/mL,16 µg/mL,8 µg/mL,4 µg/mL,16 µg/mL,16 µg/mL,32 µg/mL,–,–,–,–,–,–,–,–,–,–,–
MRRPRKMNYKKSKRMFSRTAARTHRKNSLRGSRPMRGGIRL [Gkh1],1 µg/mL,1 µg/mL,0.5,4 µg/mL,4 µg/mL,1 µg/mL,4 µg/mL,8 µg/mL,4 µg/mL,2 µg/mL,8 µg/mL,>8 µg/mL,4 µg/mL,8 µg/mL,0.5 µg/mL,1 µg/mL,0.25 to 2 µg/mL,>8 µg/mL,32 µg/mL,4 µg/mL,"MIC50 (Enterobacter cloacae; [6]): 1 µg/mL; MIC100 (Enterobacter cloacae; [6]): 2 µg/mL; MIC Range (Enterobacter cloacae; [6]): 0.5 to 8 µg/mL; MIC (Enterobacter cloacae): 32 µg/mL; MIC50 (Escherichia coli): 2 µg/mL; MIC100 (Escherichia coli): 2 µg/mL; MIC Range (Escherichia coli): 0.5 to 8 µg/mL; MIC (Escherichia coli): 1 µg/mL; MIC Range (Klebsiella pneumoniae): 1 to 8 µg/mL; MIC (Klebsiella pneumoniae): 0.5 µg/mL; MIC (Acinetobacter baumannii): 2 µg/mL; MIC100 (S. maltophilia): >8 µg/mL; MIC [4, 7]: 2 µg/mL; MIC [4, 8]: >8 µg/mL; MIC [4, 9]: >8 µg/mL; MIC [4, 10]: >8 µg/mL; MIC [4, 11]: >8 µg/mL; MIC [4, 12]: 8 µg/mL; MIC [4, 13]: 2 µg/mL"
MRRKKMSRGKSKKLFRRTAKRVHRKNLRARPMRGGIRM [AVQ206],0.5 µg/mL,0.25 µg/mL,<0.25,4 µg/mL,16 µg/mL,2 µg/mL,1 µg/mL,4 µg/mL,4 µg/mL,2 µg/mL,–,–,–,–,–,–,–,–,–,–,–
MSLRRHKLSRKASKRIFRKGASRTKTLNTRATPMRGGFRI [Chp9],8 µg/mL,–,2,4 µg/mL,8 µg/mL,4 µg/mL,>64 µg/mL,8 µg/mL,4 µg/mL,8 µg/mL,>8 µg/mL,>8 µg/mL,>8 µg/mL,>8 µg/mL,2 µg/mL,2 µg/mL,0.5 to 2 µg/mL,>8 µg/mL,32 µg/mL,16 µg/mL,"MIC50 (Enterobacter cloacae; [6]): 4 µg/mL; MIC100 (Enterobacter cloacae; [6]): >8 µg/mL; MIC (Enterobacter cloacae): 32 µg/mL; MIC50 (Escherichia coli): 2 µg/mL; MIC100 (Escherichia coli): 8 µg/mL; MIC Range (Escherichia coli): 0.5 to 8 µg/mL; MIC (Escherichia coli): 1 µg/mL; MIC Range (Klebsiella pneumoniae): >8 µg/mL; MIC (Klebsiella pneumoniae): 1 µg/mL; MIC (Acinetobacter baumannii): 4 µg/mL; MIC100 (S. maltophilia): >8 µg/mL; MIC [4, 7]: 8 µg/mL; MIC [4, 8]: >8 µg/mL; MIC [4, 9]: >8 µg/mL; MIC [4, 10]: >8 µg/mL; MIC [4, 11]: >8 µg/mL; MIC [4, 12]: >8 µg/mL; MIC [4, 13]: 8 µg/mL"
MKPLKRKPVQKARSAAKFRRNVSTVKAANMAVKPMRGGWRF [Fen7875],2 µg/mL,2 µg/mL,4,4 µg/mL,16 µg/mL,8 µg/mL,2 µg/mL,16 µg/mL,8 µg/mL,32 µg/mL,–,–,–,–,–,–,–,–,–,–,–
MRRYNVNKGKSAKKFRKQVSKTKVANLRSNPMRGGWRL [AGT915],2 µg/mL,0.25 µg/mL,2,4 µg/mL,1 µg/mL,1 µg/mL,>64 µg/mL,>64 µg/mL,>64 µg/mL,1 µg/mL,–,–,–,–,–,–,–,–,–,–,–
MIVRRHKMSRRRSRKLFSKTASRTRSKNLRSRPMRGGYRI [Unp4],2 µg/mL,>16 µg/mL,–,–,16 µg/mL,4 µg/mL,1 µg/mL,4 µg/mL,4 µg/mL,4 µg/mL,–,–,–,–,–,–,–,–,32 µg/mL,16 µg/mL,–
MKLTKSDIAYREALGLSTTDPLPAEIGMVTRRANRLKRPRKTARFR [Myo1],>64 µg/mL,–,–,>64 µg/mL,>64 µg/mL,>64 µg/mL,8 µg/mL,–,>64 µg/mL,>64 µg/mL,–,–,–,–,–,–,–,–,–,32 µg/mL,–
MAKKIRNKARDRRIFTRTASRMHKANRTPRFMRGGIRL [ALCES1],–,–,–,1 µg/mL,2 µg/mL,4 µg/mL,8 µg/mL,2 µg/mL,2 µg/mL,2 µg/mL,>8 µg/mL,>8 µg/mL,>8 µg/mL,>8 µg/mL,2 µg/mL,2 µg/mL,1 to 2 µg/mL,4 µg/mL,32 µg/mL,8 µg/mL,MIC100 (S. maltophilia): 8 µg/mL
MAYRGFKTSRVVKHRVRRRWFNHRRRYR [Spi1],2 µg/mL,0.25 µg/mL,1,2 µg/mL,16 µg/mL,8 µg/mL,>64 µg/mL,2 µg/mL,4 µg/mL,0.5 µg/mL,4 µg/mL,8 µg/mL,2 µg/mL,4 µg/mL,1 µg/mL,1 µg/mL,1 µg/mL,2 µg/mL,32 µg/mL,16 µg/mL,"MIC Range (Pseudomonas aeruginosa): 2 to 8 µg/mL; MIC Range (Klebsiella pneumoniae): 2 to 4 µg/mL; MIC100 (S. maltophilia): 2 µg/mL; MIC [4, 7]: 2 µg/mL; MIC [4, 8]: 4 µg/mL; MIC [4, 9]: 8 µg/mL; MIC [4, 10]: 4 µg/mL; MIC [4, 11]: 8 µg/mL; MIC [4, 12]: 4 µg/mL; MIC [4, 13]: 2 µg/mL"
MKMRKRTDKRVFTRTAAKSKKVNIAPKIFRGGIRL [Unp1],4 µg/mL,4 µg/mL,4,4 µg/mL,2 µg/mL,8 µg/mL,1 µg/mL,8 µg/mL,32 µg/mL,8 µg/mL,–,–,–,–,–,–,–,–,–,–,MIC (Enterobacter cloacae): >32 µg/mL; MIC (Escherichia coli): 0.5 µg/mL; MIC (Klebsiella pneumoniae): 8 µg/mL; MIC (Acinetobacter baumannii): 8 µg/mL
